# Laboratory results from PubChem BioAssay (NCI).
#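 96-well plates; 48 h exposure; 5 concentrations. Endpoints by linear interpolation between flanking doses. Not reached: highest tested concentration assigned. GI50 marks 50% less growth. TGI is the concentration that stops growth completely.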
# Legend:
# Test in all cases: inhibition of tumour cell growth, NCI panel, 48 h
# [1] = test system: OVCAR-3 ovarian
# [2] = test system: NCI/ADR-RES ovarian
# [3] = test system: TK-10 renal
# [4] = test system: EKVX NSCLC
# [5] = test system: NCI-H23 lung
# [6] = test system: U251 CNS
# [7] = test system: OVCAR-8 ovarian
# [8] = test system: ACHN renal
# [9] = test system: SF-539 CNS
# [10] = test system: BT-549 breast
# [11] = test system: HL-60(TB) leukemia
# [12] = test system: UACC-257 melanoma
# [13] = test system: SF-295 CNS
# [14] = test system: SNB-75 CNS
# [15] = test system: OVCAR-4 ovarian
# [16] = test system: COLO 205 colon
# [17] = test system: NCI-H226 lung
# [18] = test system: PC-3 prostate
# [19] = test system: SN12C renal
# [20] = test system: M14 melanoma
# [21] = test system: RPMI-8226 leukemia
# [22] = test system: DU-145 prostate
# [23] = test system: HOP-92 NSCLC
# [24] = test system: LOX IMVI melanoma
# [25] = test system: A549 NSCLC
# [26] = test system: SK-MEL-2 melanoma
# [27] = test system: HOP-62 NSCLC
# [28] = test system: UACC-62 melanoma
# [29] = test system: HCT-15 colon
# [30] = test system: MCF7 breast
# [31] = test system: HS 578T breast
# [32] = test system: K-562 leukemia
# [33] = test system: HCC-2998 colon
# [34] = test system: MDA-MB-231 breast
# [35] = test system: 786-0 renal
# [36] = test system: MDA-MB-435
# [37] = test system: OVCAR-5 ovarian
# [38] = test system: SNB-19 CNS
# [39] = test system: HT29 colon
# [40] = test system: SK-MEL-28 melanoma
# [41] = test system: HCT-116 colon
# [42] = test system: T-47D breast
# [43] = test system: SF-268 CNS
# [44] = test system: NCI-H460 lung
# [45] = test system: CAKI-1 renal
# [46] = test system: A498 renal
# [47] = test system: SK-OV-3 ovarian
# [48] = test system: UO-31 renal
# [49] = test system: IGROV1 ovarian
# [50] = test system: MOLT-4 leukemia
# [51] = test system: KM12 colon
# [52] = test system: RXF 393 renal
# [53] = test system: CCRF-CEM leukemia
# [54] = test system: MALME-3M melanoma
# [55] = test system: SK-MEL-5 melanoma
smiles,measurement,setting,value
O=C(NNc1nc(Cl)nc(N2CCN(C(c3ccccc3)c3ccccc3)CC2)n1)c1ccccc1,GI50,[1],1.65 µM
same,TGI,[1],3.13 µM
same,GI50,[2],2.08 µM
same,TGI,[2],4.41 µM
same,GI50,[3],> 100 µM
same,TGI,[3],> 100 µM
same,GI50,[4],1.99 µM
same,TGI,[4],4.29 µM
same,GI50,[5],1.83 µM
same,TGI,[5],3.64 µM
same,GI50,[6],1.69 µM
same,TGI,[6],3.13 µM
same,GI50,[7],1.99 µM
same,TGI,[7],4.67 µM
same,GI50,[8],1.75 µM
same,TGI,[8],3.17 µM
same,GI50,[9],1.73 µM
same,TGI,[9],3.15 µM
same,GI50,[10],1.69 µM
same,TGI,[10],3.09 µM
same,GI50,[11],2.15 µM
same,TGI,[11],6.26 µM
same,GI50,[12],2.06 µM
same,TGI,[12],4.67 µM
same,GI50,[13],10.8 µM
same,TGI,[13],23.1 µM
same,GI50,[14],1.43 µM
same,TGI,[14],2.75 µM
same,GI50,[15],1.68 µM
same,TGI,[15],3.14 µM
same,GI50,[16],2.04 µM
same,TGI,[16],4.64 µM
same,GI50,[17],7.25 µM
same,TGI,[17],25.8 µM
same,GI50,[18],1.83 µM
same,TGI,[18],3.81 µM
same,GI50,[19],1.72 µM
same,TGI,[19],3.17 µM
same,GI50,[20],1.59 µM
same,TGI,[20],3.12 µM
same,GI50,[21],3.79 µM
same,TGI,[21],> 100 µM
same,GI50,[22],2.15 µM
same,TGI,[22],4.53 µM
same,GI50,[23],1.72 µM
same,TGI,[23],3.68 µM
same,GI50,[24],1.54 µM
same,TGI,[24],2.94 µM
same,GI50,[25],13.5 µM
same,TGI,[25],30.5 µM
same,GI50,[26],1.83 µM
same,TGI,[26],3.55 µM
same,GI50,[27],1.88 µM
same,TGI,[27],4.04 µM
same,GI50,[28],1.72 µM
same,TGI,[28],3.29 µM
same,GI50,[29],1.62 µM
same,TGI,[29],3.42 µM
same,GI50,[30],6.44 µM
same,TGI,[30],> 100 µM
same,GI50,[31],1.94 µM
same,TGI,[31],4.8 µM
same,GI50,[32],0.734 µM
same,TGI,[32],> 100 µM
same,GI50,[33],1.63 µM
same,TGI,[33],3.16 µM
same,GI50,[34],1.96 µM
same,TGI,[34],3.77 µM
same,GI50,[35],2.21 µM
same,TGI,[35],4.84 µM
same,GI50,[36],1.75 µM
same,TGI,[36],3.21 µM
same,GI50,[37],12.7 µM
same,TGI,[37],40.7 µM
same,GI50,[38],1.76 µM
same,TGI,[38],3.33 µM
same,GI50,[39],1.92 µM
same,TGI,[39],4.07 µM
same,GI50,[40],1.75 µM
same,TGI,[40],3.25 µM
same,GI50,[41],1.62 µM
same,TGI,[41],3.06 µM
same,GI50,[42],3.41 µM
same,TGI,[42],> 100 µM
same,GI50,[43],1.73 µM
same,TGI,[43],3.33 µM
same,GI50,[44],1.93 µM
same,TGI,[44],3.77 µM
same,GI50,[45],1.68 µM
same,TGI,[45],3.1 µM
same,GI50,[46],3.55 µM
same,TGI,[46],18.8 µM
same,GI50,[47],2.47 µM
same,TGI,[47],6.94 µM
same,GI50,[48],2.54 µM
same,TGI,[48],17.2 µM
same,GI50,[49],1.66 µM
same,TGI,[49],3.06 µM
same,GI50,[50],1.66 µM
same,TGI,[50],5.13 µM
same,GI50,[51],4.76 µM
same,TGI,[51],> 100 µM
same,GI50,[52],1.62 µM
same,TGI,[52],3.13 µM
same,GI50,[53],1.28 µM
same,TGI,[53],4.53 µM
same,GI50,[54],1.69 µM
same,TGI,[54],3.34 µM
same,GI50,[55],5.35 µM
same,TGI,[55],18.8 µM
